Laboratory results reported in the METLIN SMRT retention time set (Domingo-Almenara et al. 2019).

Test: gradient 5% acetonitrile 3 min, to 50% in 2 min, to 85% in 15 min, held 3 min, 100 µL/min
Details: column: Zorbax Extend-C18 2.1 x 50 mm; eluents: water / acetonitrile, 0.1% formic acid
Procedure, shortened: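 Retention times of pure standards were taken from adduct peaks that were selected by computer and manually inspected. Over 3 months, mixtures of ~100 molecules were run by HPLC–quadrupole time-of-flight mass spectrometry in positive and negative ionization mode. The Zorbax Extend-C18 column (2.1 × 50 mm, 1.8 μm) ran at 100 μL/min in water and acetonitrile, each containing 0.1% formic acid, with 40 μL dead volume and 900 μL dwell volume.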

O=C(CC1CCN(C(=O)Nc2cccc(C(F)(F)F)c2)CC1)N1CCCCC1
RP-LC retention time: 878 s

Cc1ccc(N2CC(c3noc(-c4ccc5ccccc5n4)n3)CC2=O)cc1 (stereo unspecified)
RP-LC retention time: 899 s

Cc1cc(C)n(-c2ccc(C(=O)N3CCN(c4ccc(F)c(Cl)c4)CC3)nn2)n1
RP-LC retention time: 969 s

CCn1cc(C)c(C(=O)O)c1CC(=O)N(C)c1ccccc1F
RP-LC retention time: 770 s

Cc1cc(C(=O)NC2CC2)nn1C
RP-LC retention time: 600 s

CC(=O)Nc1ccc(NC(=O)c2ccc3nc(-c4ccc(Cl)cc4)cn3c2)cc1
RP-LC retention time: 677 s

COC(=O)CNC(=O)N1CCN(c2nc3ccccc3n(Cc3ccccc3)c2=O)CC1
RP-LC retention time: 779 s

Nc1cc(C2CCN(C(=O)Nc3ccc(F)c(Cl)c3)CC2)no1
RP-LC retention time: 750 s

Cc1ccc(CCNC(=O)C2CCCN2S(=O)(=O)c2ccc3c(c2)C(C)(C)C(=O)N3C)cc1 (stereo unspecified)
RP-LC retention time: 896 s

CC(=O)N1CCc2nn(CC(=O)N3CCc4ccccc43)c(=O)cc2C1
RP-LC retention time: 639 s

CCN(CC)S(=O)(=O)c1ccc(C)c(-c2nnc(-c3ccc(F)cc3)o2)c1
RP-LC retention time: 1100 s

O=C1[C@H]2CN(Cc3cccc(F)c3F)C[C@H]2C(=O)N1Cc1ccc2c(c1)OCO2
RP-LC retention time: 919 s

Cc1c(CNCC2CCCO2)c(C(=O)O)c(C)n1Cc1cccc(Cl)c1 (stereo unspecified)
RP-LC retention time: 717 s

COc1ccc(-c2nnc(-c3ccc(C)c(S(=O)(=O)NC(C)C(=O)O)c3)o2)cc1OC (stereo unspecified)
RP-LC retention time: 748 s

CC1CCN(c2nn(CC(=O)Nc3ccc4c(c3)OCCO4)c(=O)c3ccccc23)CC1
RP-LC retention time: 1060 s

COc1ccc(C(=O)N2CCC(c3noc(-c4cnccn4)n3)C2)cn1 (stereo unspecified)
RP-LC retention time: 790 s

COc1cc2c(c3oc4cccc(O)c4c(=O)c13)C1C=CO[C@@H]1O2 (stereo partly specified)
RP-LC retention time: 989 s

CCCCN(CCCC)c1nc(-c2ccncc2)nc2ccccc12
RP-LC retention time: 992 s

COc1cccc2sc(N3CCc4ccccc4C3)nc12
RP-LC retention time: 1000 s

O=C1CS(=O)C2(CCN(S(=O)(=O)Cc3ccccc3)CC2)N1CC1CC1 (stereo unspecified)
RP-LC retention time: 713 s

CC1CC(=O)c2cnc(N3CCN(c4ccccc4)CC3)nc2C1 (stereo unspecified)
RP-LC retention time: 1080 s

Cc1nn(-c2ccc(F)cc2)c2nc(N3CCCC(C(=O)NCCc4ccco4)C3)sc12 (stereo unspecified)
RP-LC retention time: 1080 s

CCOc1ccc(Cc2nc(-c3ccc4c(c3)N(CC)C(=O)CO4)no2)cc1OCC
RP-LC retention time: 1070 s

COCC(=O)N1CCc2c(c(-c3nc(C4CC4)no3)nn2C)C1
RP-LC retention time: 653 s

Cc1ccc(NC(=O)Nc2ccc3nnc(C4CCC4)n3c2)cc1Cl
RP-LC retention time: 870 s

COc1ccc(NC(=O)Cn2nc3nc(N4CCCC(C)C4)ccn3c2=O)cc1 (stereo unspecified)
RP-LC retention time: 734 s

Cc1ccc(CNC(=O)c2cc3c(n(-c4ccc(C(F)(F)F)cc4)c2=O)CCCC3=O)o1
RP-LC retention time: 634 s

COc1cc2c3cc1Oc1c(OC)c(OC)cc4c1C(Cc1ccc(cc1)Oc1cc(ccc1O)CC3N(C)CC2)N(C)CC4 (stereo unspecified)
RP-LC retention time: 579 s

CCC(C(=O)NCCc1c[nH]c2ccc(C)cc12)n1c2ccccc2c2cnn(C)c(=O)c21 (stereo unspecified)
RP-LC retention time: 957 s

Cc1cc(N2CCOCC2)nc(N2CCOCC2)n1
RP-LC retention time: 624 s

CCCN1C(=O)c2cccnc2Sc2cc(C(=O)N3CCOCC3)ccc21
RP-LC retention time: 682 s

O=C(Nc1cccc(-c2cn3cccnc3n2)c1)c1ccccc1Cl
RP-LC retention time: 666 s

COCCNC(=O)C1Cc2ccccc2CN1S(=O)(=O)c1cccc(C)c1 (stereo unspecified)
RP-LC retention time: 845 s

O=C(c1cc(-c2cccnc2)n[nH]1)N1CCCC(C(=O)N2CCN(c3ccc(Cl)cc3)CC2)C1 (stereo unspecified)
RP-LC retention time: 685 s

COc1ccc(NS(=O)(=O)c2c(C)nn(-c3ccc(-c4ccc(C)c(C)c4)nn3)c2C)cc1OC
RP-LC retention time: 1050 s

Cc1nc(-c2csc(S(=O)(=O)N3CCCC(C(=O)NCc4ccc(F)cc4)C3)c2)no1 (stereo unspecified)
RP-LC retention time: 892 s

CCCN(CC1CCOC1)C(=O)NCCc1ccccc1 (stereo unspecified)
RP-LC retention time: 791 s

C#C[C@]1(O)CCC2C3CCC4=CC(=O)CCC4C3C(=C)CC21CC (stereo partly specified)
RP-LC retention time: 991 s

Cc1ccccc1-c1noc(C2CCCN2C(=O)Nc2ccccc2F)n1 (stereo unspecified)
RP-LC retention time: 1020 s

CC(=O)c1cccc(NC(=O)Cc2csc3nc(-c4ccccc4)cn23)c1
RP-LC retention time: 729 s

CCC(=O)Nc1ccc(CCc2nc3ccc(C(=O)NC(C)C)cc3[nH]2)cc1
RP-LC retention time: 813 s

O=c1c2cc(-c3ccc(F)cc3)nn2cnn1Cc1nc(-c2ccc(Cl)cc2)no1
RP-LC retention time: 1190 s

COCCN1C(=O)Cc2ccccc2C1C(=O)NCc1ccc(SC)cc1 (stereo unspecified)
RP-LC retention time: 771 s

CC(C)(CO)NCc1ccc(-c2ccc(Cl)cc2)o1
RP-LC retention time: 655 s

CCN1c2ccccc2C(=O)NC12CCN(C(=O)c1cccc(OC)c1)CC2
RP-LC retention time: 752 s

CCOc1ccc(-c2noc(Cn3nc(-c4ccccc4F)ccc3=O)n2)cc1
RP-LC retention time: 1050 s

CC1CCN(CCNC(=O)c2ccc3c(c2)nc2n3CCN(Cc3ccccc3)C2=O)CC1
RP-LC retention time: 621 s

COCCNC(=O)C(=O)NCCc1cccc(OC)c1
RP-LC retention time: 650 s

COc1ccc(-c2nc3cnccn3c2NCCC(=O)Nc2ccc3c(c2)OCO3)cc1
RP-LC retention time: 673 s

CN1CCN(CCCNC(=O)C2CCc3sc(C(=O)N4CCCCCC4)cc3C2)CC1 (stereo unspecified)
RP-LC retention time: 581 s

Cc1cccc(-c2nnc(-c3nc(NCc4ccc(C)o4)c4ccccc4n3)o2)c1
RP-LC retention time: 670 s

COc1ccc(Br)cc1CNC(=O)C1CCN(C(=O)c2cc3ccsc3[nH]2)CC1
RP-LC retention time: 839 s

O=C(Cn1c(=O)c(S(=O)(=O)c2ccccc2)cc2ccccc21)NCc1ccco1
RP-LC retention time: 810 s

CN(C(=O)C1CCN(S(=O)(=O)c2ccc3c(c2)sc(=O)n3C)CC1)C1CCCCC1
RP-LC retention time: 910 s

Cc1ccc(C2Cn3cnc(C(=O)N4CCC(C(=O)NCC5CCCCC5)CC4)c3CO2)cc1 (stereo unspecified)
RP-LC retention time: 885 s

Cc1csc(NC(=O)c2sc3nc(-c4cccc([N+](=O)[O-])c4)cn3c2C)n1
RP-LC retention time: 800 s

CC(C)c1cc(C(=O)NCc2ccco2)nc2cc(-c3ccccn3)nn12
RP-LC retention time: 629 s

O=C(c1ccoc1)N1CCCC1Cc1noc(-c2cnccn2)n1 (stereo unspecified)
RP-LC retention time: 686 s

Cn1cc(-c2ccc3ncc(Cc4ccc5ncccc5c4)n3n2)cn1
RP-LC retention time: 582 s

Cc1ccc(NC(=O)Cc2c(C(=O)O)c(C)cn2C)c(C)c1
RP-LC retention time: 771 s

O=C(C1CCCN(c2ncnc3c2nc2n3CCCCC2)C1)N1CCOCC1 (stereo unspecified)
RP-LC retention time: 1270 s

Cn1ncc(Br)c1C(=O)N1CCCC1c1cccc(F)c1 (stereo unspecified)
RP-LC retention time: 867 s

CC(C)Cn1c(=O)c(N2CCN(C(=O)NCc3ccco3)CC2)nc2ccncc21
RP-LC retention time: 616 s

Cc1ccc(N2CC(c3nc(-c4ccccn4)no3)CC2=O)cc1Cl (stereo unspecified)
RP-LC retention time: 838 s

CCOc1ccc2c(n1)CCN(C(=O)C1(c3ccccc3)CC1)C2
RP-LC retention time: 952 s

CN1C(=O)CC[C@]2(C(=O)NCc3cccc(C(F)(F)F)c3)CCCC[C@@H]12
RP-LC retention time: 744 s
